Measured values as given in US20230085307A1, “PYRIDAZINONE COMPOUND AND HERBICIDE” (NISSAN CHEMICAL CORPORATION, priority 2019, published 2023).

Key:
barnyard grass [1] = assay: Test Example 4: herbicidal effect by soil treatment (Table 19, symbol H); assay type: in vivo, barnyard grass (Echinochloa crus-galli); details: amount of applied herbicide 320 g/ha
In short: (§1)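 Herbicidal effect was rated 3 weeks after treatment, using the scoring criteria of an earlier test. The compound, formulated as an emulsion and diluted in water to a set herbicide amount, had been sprayed uniformly on soil over freshly sown seeds. Growth took place in a greenhouse at 25° C. to 30° C.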

barnyard grass [2] = assay: Test Example 5: herbicidal effect by foliage application, plastic box (Table 20, symbol H); assay type: in vivo, barnyard grass (Echinochloa crus-galli); details: 320 g/ha
In short: (§2)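 Foliar spray test: emulsion formulation diluted in water to a set application rate, sprayed onto 14-day-old plants raised in diluvial soil at 25° C to 30° C under glass. Both herbicidal effect and crop effect rated visually three weeks later.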

lambsquarters [3] = assay: Test Example 5: herbicidal effect by foliage application, plastic box (Table 20, symbol O); assay type: in vivo, lambsquarters (Chenopodium album); details: 320 g/ha
In short: as §2

lambsquarters [4] = assay: Test Example 4: herbicidal effect by soil treatment (Table 19, symbol O); assay type: in vivo, lambsquarters (Chenopodium album); details: amount of applied herbicide 320 g/ha
In short: as §1

rice flat sedge = assay: Test Example 3: herbicidal effect by foliage application, Wagner pot (Table 18, symbol E); assay type: in vivo, rice flat sedge (Cyperus iria)
In short: (§3)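 Plants were sown in alluvial soil held under 0.1–0.5 cm standing water and grown 14 days in a greenhouse at 25–30 °C. An emulsifiable formulation, water-diluted to the set dose, was then sprayed onto the foliage, and effects were scored three weeks later using previously defined criteria.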

velvetleaf [5] = assay: Test Example 4: herbicidal effect by soil treatment (Table 19, symbol M); assay type: in vivo, velvetleaf (Abutilon theophrasti); details: amount of applied herbicide 320 g/ha
In short: as §1

green foxtail [6] = assay: Test Example 4: herbicidal effect by soil treatment (Table 19, symbol G); assay type: in vivo, green foxtail (Setaria viridis); details: amount of applied herbicide 320 g/ha
In short: as §1

green foxtail [7] = assay: Test Example 5: herbicidal effect by foliage application, plastic box (Table 20, symbol G); assay type: in vivo, green foxtail (Setaria viridis); details: 320 g/ha
In short: as §2

southern crabgrass [8] = assay: Test Example 5: herbicidal effect by foliage application, plastic box (Table 20, symbol F); assay type: in vivo, southern crabgrass (Digitaria ciliaris); details: 320 g/ha
In short: as §2

velvetleaf [9] = assay: Test Example 5: herbicidal effect by foliage application, plastic box (Table 20, symbol M); assay type: in vivo, velvetleaf (Abutilon theophrasti); details: 320 g/ha
In short: as §2

barnyard grass [10] = assay: Test Example 3: herbicidal effect by foliage application, Wagner pot (Table 18, symbol H); assay type: in vivo, barnyard grass (Echinochloa crus-galli)
In short: as §3

redroot pigweed [11] = assay: Test Example 4: herbicidal effect by soil treatment (Table 19, symbol N); assay type: in vivo, redroot pigweed (Amaranthus retroflexus); details: amount of applied herbicide 320 g/ha
In short: as §1

late watergrass = assay: Test Example 2: herbicidal activity, application during weed generation under submerged conditions (Table 17, symbol A); assay type: in vivo, late watergrass (Echinochloa oryzicola); details: AAH 320 g/ha; application during weed generation, submerged conditions
Method: (§4) [Test Example 2] Herbicidal Activity Test by Application during Weed Generation under Submerged Conditions After alluvial soil was placed into 1/10000 are of Wagner pot, water was poured and mixed to form a submerged condition having a water depth of 4 cm. Seeds of late watergrass, Japanese bulrush, and oval-leafed pondweed were sowed in a mixed manner in the aforementioned pot, and the pot was placed in a greenhouse at 25° C. to 30° C. for growth of the plants. When late watergrass, Japanese bulrush, and oval-leafed pondweed were grown to one leaf stage to two leaf stage, the emulsion agent of the compound of the present invention prepared according to Formulation Example 2 was diluted with water so as to achieve a predetermined herbicide amount, and the diluted emulsion agent was applied to the surface of the water. Three weeks after the herbicide application, the effect of the herbicide on each plant was evaluated according to the criteria of Test Example 1.

Chinese sprangletop = assay: Test Example 3: herbicidal effect by foliage application, Wagner pot (Table 18, symbol D); assay type: in vivo, chinese sprangletop (Leptochloa chinensis)
In short: as §3

oval-leafed pondweed = assay: Test Example 2: herbicidal activity, application during weed generation under submerged conditions (Table 17, symbol C); assay type: in vivo, oval-leafed pondweed (Monochoria vaginalis); details: AAH 320 g/ha; application during weed generation, submerged conditions
In short: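 Herbicide emulsion, diluted with water to the chosen amount, is applied onto 4 cm floodwater over alluvial soil where the weeds were co-sown and raised at 25–30° C. Application timing: 1–2 leaves. Assessment: three weeks afterwards.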

southern crabgrass [12] = assay: Test Example 4: herbicidal effect by soil treatment (Table 19, symbol F); assay type: in vivo, southern crabgrass (Digitaria ciliaris); details: amount of applied herbicide 320 g/ha
In short: as §1

redroot pigweed [13] = assay: Test Example 5: herbicidal effect by foliage application, plastic box (Table 20, symbol N); assay type: in vivo, redroot pigweed (Amaranthus retroflexus); details: 320 g/ha
In short: as §2

Japanese bulrush = assay: Test Example 2: herbicidal activity, application during weed generation under submerged conditions (Table 17, symbol B); assay type: in vivo, Japanese bulrush (Schoenoplectus juncoides); details: AAH 320 g/ha; application during weed generation, submerged conditions
Method: as §4

persian speedwell = assay: Test Example 5: herbicidal effect by foliage application, plastic box (Table 20, symbol R); assay type: in vivo, Persian speedwell (Veronica persica); details: 320 g/ha, foliage application after 14-day growth, evaluated three weeks after application
In short: as §2

chickweed = assay: Test Example 5: herbicidal effect by foliage application, plastic box (Table 20, symbol P); assay type: in vivo, common chickweed (Stellaria media); details: 320 g/ha, foliage application after 14-day growth, evaluated three weeks after application
In short: as §2

Italian ryegrass = assay: Test Example 5: herbicidal effect by foliage application, plastic box (Table 20, symbol K); assay type: in vivo, Italian ryegrass (Lolium multiflorum); details: 320 g/ha, foliage application after 14-day growth, evaluated three weeks after application
In short: as §2

windgrass = assay: Test Example 5: herbicidal effect by foliage application, plastic box (Table 20, symbol L); assay type: in vivo, windgrass (Apera spica-venti); details: 320 g/ha, foliage application after 14-day growth, evaluated three weeks after application
In short: as §2

blackgrass = assay: Test Example 5: herbicidal effect by foliage application, plastic box (Table 20, symbol J); assay type: in vivo, blackgrass (Alopecurus myosuroides); details: 320 g/ha, foliage application after 14-day growth, evaluated three weeks after application
In short: as §2

wild oat = assay: Test Example 5: herbicidal effect by foliage application, plastic box (Table 20, symbol I); assay type: in vivo, wild oat (Avena fatua); details: 320 g/ha, foliage application after 14-day growth, evaluated three weeks after application
In short: as §2

[14] = foliage application, three weeks after application
[15] = amount of applied herbicide 320 g/ha
[16] = foliage application after 14-day growth, evaluated three weeks after application

Cc1ccc2sc(-c3ccc(OC(F)F)cc3)c(-c3c(O)c(C)nn(C)c3=O)c2c1 [2-459]
herbicidal effect, H: barnyard grass (barnyard grass [1]): 0 (Herbicidal rate of 5% or less (almost no effect))
H: barnyard grass, herbicidal effect grade (barnyard grass [2]; [14]): 0 (Herbicidal rate of 5% or less (almost no effect))
O: lambsquarters, herbicidal effect grade (lambsquarters [3]; [14]): 4 (Herbicidal rate of 70% or more and less than 90%)
herbicidal effect, O: lambsquarters (lambsquarters [4]): 4 (Herbicidal rate of 70% or more and less than 90%)
herbicidal effect on E: rice flat sedge (rice flat sedge; [15]): 0 (Herbicidal rate of 5% or less (almost no effect))
herbicidal effect, M: velvetleaf (velvetleaf [5]): 1 (Herbicidal rate of 5% or more and less than 20%)
herbicidal effect, G: green foxtail (green foxtail [6]): 0 (Herbicidal rate of 5% or less (almost no effect))
G: green foxtail, herbicidal effect grade (green foxtail [7]; [14]): 0 (Herbicidal rate of 5% or less (almost no effect))
F: southern crabgrass, herbicidal effect grade (southern crabgrass [8]; [14]): 0 (Herbicidal rate of 5% or less (almost no effect))
M: velvetleaf, herbicidal effect grade (velvetleaf [9]; [14]): 4 (Herbicidal rate of 70% or more and less than 90%)
herbicidal effect on H: barnyard grass (barnyard grass [10]; [15]): 3 (Herbicidal rate of 40% or more and less than 70%)
herbicidal effect, N: redroot pigweed (redroot pigweed [11]): 5 (Herbicidal rate of 90% or more (almost completely withered))
herbicidal effect rating, A: late watergrass (late watergrass): 3 (Herbicidal rate of 40% or more and less than 70%)
herbicidal effect on D: Chinese sprangletop (Chinese sprangletop; [15]): 0 (Herbicidal rate of 5% or less (almost no effect))
herbicidal effect rating, C: oval-leafed pondweed (oval-leafed pondweed): 0 (Herbicidal rate of 5% or less (almost no effect))
herbicidal effect, F: southern crabgrass (southern crabgrass [12]): 0 (Herbicidal rate of 5% or less (almost no effect))
N: redroot pigweed, herbicidal effect grade (redroot pigweed [13]; [14]): 4 (Herbicidal rate of 70% or more and less than 90%)
herbicidal effect rating, B: Japanese bulrush (Japanese bulrush): 0 (Herbicidal rate of 5% or less (almost no effect))

Cc1ccc(-c2sc3c(Cl)cccc3c2-c2c(O)c(C)nn(C)c2=O)cc1 [4-019]
herbicidal effect on R: persian speedwell (evaluation grade 0-5) (persian speedwell): 4 (Herbicidal rate of 70% or more and less than 90%)
herbicidal effect on P: chickweed (evaluation grade 0-5) (chickweed): 5 (Herbicidal rate of 90% or more (almost completely withered))
herbicidal effect on H: barnyard grass (evaluation grade 0-5) (barnyard grass [2]; [16]): 0 (Herbicidal rate of 5% or less (almost no effect))
herbicidal effect on O: lambsquarters (evaluation grade 0-5) (lambsquarters [3]; [16]): 1 (Herbicidal rate of 5% or more and less than 20%)
herbicidal effect on rice flat sedge (E) (rice flat sedge; 320 g/ha): 5 (Herbicidal rate of 90% or more (almost completely withered))
herbicidal effect on K: Italian ryegrass (evaluation grade 0-5) (Italian ryegrass): 3 (Herbicidal rate of 40% or more and less than 70%)
herbicidal effect on L: windgrass (evaluation grade 0-5) (windgrass): 1 (Herbicidal rate of 5% or more and less than 20%)
herbicidal effect on G: green foxtail (evaluation grade 0-5) (green foxtail [7]; [16]): 1 (Herbicidal rate of 5% or more and less than 20%)
herbicidal effect on F: southern crabgrass (evaluation grade 0-5) (southern crabgrass [8]; [16]): 0 (Herbicidal rate of 5% or less (almost no effect))
herbicidal effect on M: velvetleaf (evaluation grade 0-5) (velvetleaf [9]; [16]): 5 (Herbicidal rate of 90% or more (almost completely withered))
herbicidal effect on barnyard grass (H) (barnyard grass [10]; 320 g/ha): 3 (Herbicidal rate of 40% or more and less than 70%)
herbicidal effect on J: blackgrass (evaluation grade 0-5) (blackgrass): 0 (Herbicidal rate of 5% or less (almost no effect))
herbicidal effect on I: wild oat (evaluation grade 0-5) (wild oat): 3 (Herbicidal rate of 40% or more and less than 70%)
herbicidal effect rating, A: late watergrass (late watergrass): 4 (Herbicidal rate of 70% or more and less than 90%)
herbicidal effect on Chinese sprangletop (D) (Chinese sprangletop; 320 g/ha): 4 (Herbicidal rate of 70% or more and less than 90%)
herbicidal effect rating, C: oval-leafed pondweed (oval-leafed pondweed): 0 (Herbicidal rate of 5% or less (almost no effect))
herbicidal effect on N: redroot pigweed (evaluation grade 0-5) (redroot pigweed [13]; [16]): 5 (Herbicidal rate of 90% or more (almost completely withered))
herbicidal effect rating, B: Japanese bulrush (Japanese bulrush): 0 (Herbicidal rate of 5% or less (almost no effect))
